A short description of data set [1]: Passive membrane permeation assay (PAMPA). The class given is in vitro ADME. The settings on record: pre-coated PAMPA plate, PBS pH 7.4, 200 µM, 25 °C; for R (mass retention) / Pe: 5 h; for Pe / Papp at 5 h, 200 µM: mean ± standard deviation; for Papp at 5 h, 200 µM: read-out: Pe. The procedure: The passive membrane permeability was evaluated with a pre-coated PAMPA plate system (BD Gentest, BD Bioscience, Germany) following the guidelines of the manufacturer and a previous literature report (cf. Kühl et al. Eur. J. Med. Chem. 2022, 240, 114585). Phosphate-buffered saline (PBS) pH 7.4 (Sigma-Aldrich, Germany) was used for all experiments. Analyte concentrations were determined on a Jasco HPLC system equipped with a UV detector and an RP-18 column (Chromolith® Performance RP-18e, 100x4.6 mm) using one of the gradients listed in Table 2. For all samples, the injection volume was 40 µl. Table 2: HPLC settings for the analysis of PAMPA samples.
Prior to performing the assay, the PAMPA plate was warmed to room temperature for 0.5 h. In the donor plate, 300 µL of the 200 µM compound solutions in PBS (4 % dimethyl sulfoxide (DMSO)) were dispensed in triplicate, and in the acceptor plate, 200 µL of PBS buffer were added to all wells. The plates were combined, and the system was incubated at 25 °C for 5 h. Upon completion of the incubation, donor and acceptor plate were separated. The wells were homogeneously mixed with a pipette, and a 100 µl sample of each donor and acceptor well was transferred to 96 well U-bottom polypropylene plates (Greiner Bio-One, Germany) for quantitative HPLC analysis.
(In general: The PAMPA barrier holds no transporters, so it reflects passive diffusion.)

The next data set concerns HuH-7 cells. In words: Cell viability in HuH-7 cells (CellTiter-Blue). The settings on record: 50 µM, mean of triplicates ± standard deviation. The class given is cell-based, human. As for the experimental part:
In order to assess cytotoxic effects of compounds in cell culture, HuH-7 cells were incubated in presence of these compounds in a 96-well plate for 2 h or 24 h. In order to generate a calibration curve for cell viability, a serial dilution (1:2 dilution series) of cells was seeded into control wells. Measurement of cell viability is based on the assay development using CellTiter-Blue reagent (Resazurin, blue color), which is reduced to resofurin (pink color) by viable cells.
Prior to performing the assay, a 96-well assay plate (F-bottom, transparent, Greiner) containing HuH-7 cells (20,000 cells per well) in culture medium was prepared. […] CellTiter-Blue reagent (1-2 mL) was diluted with cell culture medium (10 mL) in a Falcon tube and prewarmed to 37 °C. The 96-well plate was removed from the incubator, the medium aspirated using a vacuum pump and 100 µL of diluted CellTiter-Blue reagent was added to each well.
On the technique in general: The colour change of resazurin is a common sign of viable cells or microbes.

A short description of data set [2]: Drug release kinetics (prodrug cleavage) in human blood plasma. It is filed as in vitro ADME. To be noted: 37 °C; for half-life: 10 % human plasma in PBS, 50 µM; for half-life at 50 µM: 100 % human plasma. As for the experimental part:
Pooled human blood plasma (Biowest, France) and sterile Dulbecco's phosphate buffered saline (PBS) pH 7.3 (Sigma-Aldrich, Germany) were used for all experiments. The blood plasma was aliquoted upon receipt and stored at -20 °C. 10 % solutions were prepared by thawing a plasma aliquot at 2-8 °C, distributing it into plastic vials and diluting with the appropriate volume of sterile PBS. The 10 % and 100 % plasma aliquots were stored at -20 °C and thawed at 2-8 °C directly before the assay was performed. In a thermoblock, a plasma aliquot and 10 µl of a 5 mM prodrug solution in DMSO were prewarmed to 37 °C for 10 min in separate plastic vials. Then, 1000 µl of the prewarmed plasma sample was added to the prodrug solution, and 9×100 µl samples were withdrawn at appropriate time intervals. The enzymatic reaction was quenched by immediate mixing of the samples (100 µl) with acetonitrile (200 µl). Blank samples were prepared by mixing 10 % or 100 % plasma (100 µl) with acetonitrile (200 µl), respectively. Samples of the initial reaction mixture were prepared by adding the 5 mM prodrug solution (1 µl) to a blank sample.
Centrifugation (13,000 rpm, 3 min) of the quenched samples afforded clear supernatants which were transferred to 96 well U-bottom polypropylene plates (Greiner Bio-One, Germany). Analyte quantifications were performed on a Jasco HPLC system equipped with a UV detector and an RP-18 column (Chromolith® Performance RP-18e, 100x4.6 mm) using one of the gradients listed in Table 3. Prodrug degradation was monitored using undiluted supernatant and a 10 min chromatographic method. […] For all samples, the injection volume was 40 µL and the flow was set to 1.0 mL/min. […] Table 3: HPLC settings for quantitative analysis of plasma samples.

Data set [3] can be described thus: Prodrug stability in human whole saliva. It is filed as in vitro ADME. The settings on record: mean of fresh samples of three individuals, classified into three groups; for half-life at 50 µM: 37 °C. As for the experimental part:
Freshly collected saliva and 5 mM stock solutions of the analytes in DMSO were prewarmed to 37 °C for 10 min. Then, 700 µl prewarmed saliva was added to 7 µl of the prodrug stock, and the mixture was incubated at 37 °C. Samples (100 µL) were taken at selected time points (0, 10, 20, 40, 60 min; 2 h or 24 h) and immediately quenched with acetonitrile (200 µl). Blank samples were prepared by mixing saliva (100 µl) with acetonitrile (200 µl). Centrifugation (3,000 rpm, 5 min) of the quenched samples afforded clear supernatants which were transferred to 96 well U-bottom polypropylene plates (Greiner Bio-One, Germany). Analyte quantifications were performed on a Jasco HPLC system equipped with a UV detector and an RP-18 column (Chromolith® Performance RP-18e, 100x4.6 mm) using the gradients listed in Table 4. Samples that gave rise to asymmetric peaks inadequate for quantification were diluted (1:1) with H2O (+0.1 % TFA). The injection volume was 40 µl and the flow was set to 1.0 mL/min. UV detection was performed at 286 nm. […] Table 4: HPLC settings for quantitative analysis of saliva samples.

The nature of data set [4]: Stability of prodrugs in methanol (1H NMR). The class given is physicochemical. The settings on record: CD3OD, ambient temperature, within 18 days. An excerpt:
The stability of the exemplary carboxylic ester 8b in methanol was studied by dissolving a few milligrams of the fumarate ester in CD3OD at ambient temperature and measuring ^1H NMR spectra in appropriate time intervals.

Data set [5] in a line: Equilibrium solubility (shake-flask). The settings on record: 35.5 °C, pH 6.8, aqueous buffer, thermodynamic from solid. The procedure: For each reported solubility result, one shake-flask experiment was carried out unless otherwise stated. Measurements at pH 2.0 were performed in 0.01 M HCl. Measurements at pH 6.8 were performed in a KH2PO4/K2HPO4 buffer with an ionic strength of 70 mM. For each experiment, the solid, HPLC-purified sample (1.7 - 25 mg) was suspended in 250 - 500 µL of the aqueous buffer in a glass vial. The solution containing solid excess of the sample was then capped and shaken at 220 rpm in an Infors HT Minitron incubator at a defined temperature for 6 hours. Three aliquots (3 × 70 µL) were removed with a fine pipette from each shake-flask experiment, and the saturated solution in these aliquots was separated from precipitate by centrifugation (10000 rpm, 5 min) at the assay temperature. […] The reported values are the mean of three measured concentrations. The error was estimated based on the standard deviation of the three measurements and the uncertainty of the calibration curve. Table 8: Equilibrium solubility of selected prodrugs along with references.

Values joined by “and” are separate entries in the source; they are usually repeats but may differ in a detail not shown here. Equal values may be shown once. Where a name gives a salt, the structure may show the parent alone.

Usually half-life stands for the time needed for the level to fall by half in the phase considered. `CCCC(=O)Oc1cccc2[nH]cc(CCN(C)CC)c12` [Compound 8b, 4-Butyryloxy-N-ethyl-N-methyltryptammonium fumarate]: in data set [1], the “R (mass retention)” value was 4%; the Pe result is “at least 8 10^-6 cm/s”; the Papp at 5 h, 200 µM was 9.2 ± 0.8 ×10⁻⁶ cm/s. Also, in the data set with HuH-7 cells, the “Cell Viability in HuH7 at 50 µM, 2 h Incubation” value (“Cell Viability … 2 h Incubation” for short) was 88.1 ± 6.0% and the “Cell Viability in HuH7 at 50 µM, 24 h Incubation” value (“Cell Viability … 24 h Incubation” below) is 83.7 ± 1.0%. Besides, the half-life in data set [2] was 0.64 ± 0.04 min. The half-life at 50 µM in data set [3] is 15 to 60 min. The “initial amount of ester degraded” value in data set [4] is recorded as “approximately 50%”.

As for `CCN(C)CCc1c[nH]c2cccc(OC(=O)c3ccccc3)c12` [Compound 8i, 4-Benzoyloxy-N-ethyl-N-methyltryptammonium fumarate], in data set [1], the “R (mass retention)” value turned out to be 6% and the Papp at 5 h, 200 µM came to 9.4 ± 0.8 ×10⁻⁶ cm/s. In addition, in the data set with HuH-7 cells, the “Cell Viability … 2 h Incubation” value was found to be 95.0 ± 3.8% and the “Cell Viability … 24 h Incubation” value is 80.1 ± 1.7%. Also, in data set [2], the half-life is 1.5 ± 0.5 min. Moreover, the half-life at 50 µM in data set [3] lay in the range of 15 to 60 min.

Usually solubility (thermodynamic) stands for solubility found after equilibrating the solid with the medium. As to `CN(C)CCc1c[nH]c2cccc(OC(=O)C3CC3)c12` [Compound 19c, 4-(cyclopropanecarbonyloxy)-N,N-dimethyltryptamine], the solubility (thermodynamic) at 6 h in data set [5] was 32600 µM and 8900 µg/mL.

Regarding `CCCCCC(=O)Oc1cccc2[nH]cc(CCN(C)CC)c12` [Compound 8c, 4-Hexanoyloxy-N-ethyl-N-methyltryptammonium fumarate, reference compound], in data set [1], the “R (mass retention)” value is 7% and the Papp at 5 h, 200 µM worked out at 11.8 ± 1 ×10⁻⁶ cm/s. In the data set with HuH-7 cells, the “Cell Viability … 2 h Incubation” value came out at 30.2 ± 1.0% and the “Cell Viability … 24 h Incubation” value is 74.3 ± 8.0%. The half-life in data set [2] is 0.66 ± 0.13 min. Further, in data set [3], the half-life at 50 µM was under 15 min.

Take `CCN(C)CCc1c[nH]c2cccc(OC(=O)C(C)(C)C)c12` [Compound 8f, 4-Pivaloyloxy-N-ethyl-N-methyltryptammonium fumarate]: in data set [1], the “R (mass retention)” value is -2% and the Papp at 5 h, 200 µM is 10.7 ± 0.7 ×10⁻⁶ cm/s. In the data set on HuH-7 cells, the “Cell Viability … 2 h Incubation” value was 80.4 ± 2.1% and the “Cell Viability … 24 h Incubation” value is listed as 79.4 ± 2.1%. Also, the half-life at 50 µM in data set [2] was over 60 min. Besides, in data set [3], the half-life at 50 µM is over 60 min; the “t1/2 at 37 °C and [prodrug]0 = 50 µM, Human Saliva” value is listed as over 60 min.

In the case of `CCN(C)CCc1c[nH]c2cccc(OCOC(=O)C(C)(C)C)c12` [Compound 15c, 4-Pivaloyloxymethyloxy-N-ethyl-N-methyltryptammonium fumarate], in data set [1], the “R (mass retention)” value is on record as 2% and the Pe is recorded as 9.7 ± 0.6 10^-6 cm/s. In addition, in the data set on HuH-7 cells, the “Cell Viability … 2 h Incubation” value is given as 48.3 ± 16.1% and the “Cell Viability … 24 h Incubation” value was determined as 47.1 ± 10.4%. Besides, the half-life at 50 µM in data set [2] is over 300 min. Also, the half-life at 50 µM in data set [3] is under 15 min.

`CN(C)CCc1c[nH]c2cccc(OCOC(=O)C(C)(C)C)c12` [Compound 15a, 4-Pivaloyloxymethyloxy-N,N-dimethyltryptammonium fumarate]: in data set [1], the “R (mass retention)” value is 4% and the Pe was 9.1 ± 0.5 10^-6 cm/s. In the data set on HuH-7 cells, the “Cell Viability … 2 h Incubation” value was 61.6 ± 6.0% and the “Cell Viability … 24 h Incubation” value is 61.6 ±18.4%. The half-life at 50 µM in data set [2] is over 300 min. The half-life at 50 µM in data set [3] lay in the range of 15 to 60 min.

As for `CCN(C)CCc1c[nH]c2cccc(OC(=O)C(C)C)c12` [Compound 8d, 4-iso-Butyryloxy-N-ethyl-N-methyltryptammonium fumarate], in data set [1], the “R (mass retention)” value came to 4%; the Pe entry was “at least 8 10^-6 cm/s”; the Papp at 5 h, 200 µM came to 9.5 ± 0.7 ×10⁻⁶ cm/s. For the same compound, in the data set on HuH-7 cells, the “Cell Viability … 2 h Incubation” value came to 91.4 ± 3.7% and the “Cell Viability … 24 h Incubation” value was determined as 82.1 ± 2.3%. For the same compound, the half-life in data set [2] was determined as 0.44 ± 0.03 min. Further, the half-life at 50 µM in data set [3] was 15 to 60 min.

(Values after patent EP4592276A1, “NOVEL ACY[…] OF PSILOCIN AND RELATED 4-HYDROXYT[…] BY AN EFFICIENT […] APPROACH” (Universität Heidelberg, priority 2024, dated 2025).)
